From US12162843B2, “High-purity thermostable crystal form of substituted 3-isoxazolidinone compound, preparation method therefor and application thereof” (ZHEJIANG ZHUJI UNITED CHEMICALS CO., LTD., priority 2019, dated 2024)

Assay: Stability experiment of the orthorhombic crystal (PXRD before and after storage)
Type: physicochemical
Details: high-temperature (60±2° C.) oven, 90±5% humidity, 4500±5001 ux light intensity, 10 days, samples on 5th and 10th days
Procedure: A further object of the application is to investigate stability of the orthorhombic crystal of the 2-[(2,4-dichlorophenyl)methyl]-4,4-dimethyl-3-isoxazolidinone compound (Formula I). The orthorhombic crystal is stored in a high-temperature (60±2° C.) oven, in a 90±5% humidity condition, and under 4500±5001 ux light intensity for 10 days, respectively, during which samples are collected on the 5th and 10th days for a PXRD analysis.
A PXRD diffractometer (X′Pert PRO, PNAlytical, Netherlands) is employed to collect the following specific data: Cu anode=40 kV, 150 mA, 2θ scanning range=0°˜45°, scanning speed=8°/min, step size=0.02°, divergence slit (DS)=1°, anti-scattering slit=(SS) 1°, and receiving slit (RS)=0.15 mm.
The crystals of the 2-[(2,4-dichlorophenyl)methyl]-4,4-dimethyl-3-isoxazolidinone compound (Formula I) obtained in embodiments 3, 4, 5, and 6 are respectively placed in a high-temperature (60±2° C.) oven, in a 90±5% humidity condition, and under 4500±5001 ux light intensity for 10 days. Samples are collected on the 5th and 10th days for the PXRD analysis.

SMILES: CC1(C)CON(Cc2ccc(Cl)cc2Cl)C1=O [orthorhombic crystal, 2-[(2,4-dichlorophenyl)methyl]-4,4-dimethyl-3-isoxazolidinone]
- stability of the crystal form (PXRD before and after storage): stable crystal form under high temperature, humidity and light intensity conditions
- stability of the crystal form (PXRD before and after storage) (listed as orthorhombic crystals): remain stable under high temperature, high humidity, and light intensity
